Columns and labels:
refractory epilepsy = settings: dose of 0.5 to 1 mg/kg/day, children; cited from earlier work
[1] = tested on: self-induced photosensitive seizures; settings: four cases; cited from earlier work
[2] = tested on: pattern sensitivity-induced seizures; settings: one child; cited from earlier work
[3] = Serum samples of patient analyzed for fenfluramine and norfenfluramine; format: in vivo, human
Method: (§1) Fenfluramine was administered as an oral solution via a gastric feeding tube at an initial dose of 0.5 mg/kg/day for about 5 days. An echocardiogram was performed to screen for cardiac valve abnormalities (CVD) and/or pulmonary arterial hypertension (PAH) and to establish a baseline for subsequent echocardiograms which will be used to monitor the patient's cardiovascular status over the treatment period, and repeated approximately every 3 months over the next year of continuing fenfluramine administration. […] After 4 days of fenfluramine administration Patient was able to be weaned from general anesthesia without return to seizures and the immediate crisis resolved, however, seizures began to recur after 3 more days without anesthesia and the fenfluramine dosage was adjusted up to 0.8 mg/kg/day and bolus doses of valproate or phenobarbital were administered as needed. The treating physician assessed the patient as having emerged from the SRSE crisis about 2 weeks after initiation of fenfluramine therapy. The patient remains on fenfluramine, along with levetiracetam, clobazam and valproate, and was discharged from the ICU about 1 month (approximately 32 days) after initiation of fenfluramine therapy.

[4] = tested on: super-refractory status epilepticus; assay: Case study: fenfluramine in patient in medically-induced coma, weaning from general anesthesia; format: in vivo, human
Method: Fenfluramine was tested on a patient with an established diagnosis Dravet Syndrome (DS) (February, 2008) and having undergone confirmatory genetic testing, they were hospitalized in November 2018 and had been in an intensive care unit (ICU) under general anesthesia for management of super-refractory status epilepticus. At the beginning of the testing period, they had been in the ICU for around 32 days, and multiple attempts to wean them from anesthetic agents (pentobarbital and ketamine) were unsuccessful, with repetitive and then continuous tonic seizures recurring within hours. Table 1, below, provides a complete list of all anti-epileptic drugs (AEDs) assayed in managing the patient's seizures. Some had been determined to lack efficacy, while those marked as current were still being administered.
After these other AEDs failed, the attending physician tested fenfluramine, beginning on Dec. 19, 2018. A baseline echocardiogram was taken with the patient still in ICU setting. The patient's medications (beyond anesthetic agents) at that time included valproic acid, levetiracetam, clobazam, phenobarbital, ketosis, and VNS therapy, and felbamate was most recently added after failure of the last attempt to withdraw anesthesia.
as §1

[5] = reason for withdrawal from the US market in 1997; cited from earlier work

Structure (SMILES)	Effect on number of seizures (refractory epilepsy)	Response of self-induced photosensitive seizures to treatment [1]	Effect on self-induced seizures [2]	concentration at 20 days after start of dosing ([3]; human, 0.8 mg/kg/day, SUB 001, Visit 1, Timepoint 99, SAE 8 Jan. 2019, fenfluramine oral solution via gastric feeding tube, read-out: Conc. in serum) [ng/mL]	concentration at 21 days after start of dosing ([3]; human, 0.8 mg/kg/day, SUB 001, Visit 2, Timepoint 99, SAE 9 Jan. 2019, fenfluramine oral solution via gastric feeding tube, read-out: Conc. in serum) [ng/mL]	concentration at 22 days after start of dosing ([3]; human, 0.8 mg/kg/day, SUB 001, Visit 3, Timepoint 99, SAE 10 Jan. 2019, fenfluramine oral solution via gastric feeding tube, read-out: Conc. in serum) [ng/mL]	Duration of administration after which patient was weaned from general anesthesia without return to seizures ([4]; 0.5 mg/kg/day oral solution via gastric feeding tube, adjunctive to other AEDs, one patient) [days]	Time after initiation of therapy until patient assessed as emerged from the SRSE crisis ([4]; 0.5 then 0.8 mg/kg/day, bolus valproate or phenobarbital as needed)	Time without anesthesia until seizures began to recur ([4]; after weaning, at 0.5 mg/kg/day, dose then adjusted up to 0.8 mg/kg/day) [days]	Seizure control in patients with SRSE ([4]; conclusion from the case of patient)	Time after initiation of therapy until discharge from the ICU ([4]; patient remains on fenfluramine with levetiracetam, clobazam and valproate)	Adverse effects associated with use [5]	Conc. in serum ([3]; SUB 001, Visit 1, Timepoint 99, SAE 8 Jan. 2019, fenfluramine oral solution via gastric feeding tube) [ng/mL]	Conc. in serum ([3]; SUB 001, Visit 2, Timepoint 99, SAE 9 Jan. 2019, fenfluramine oral solution via gastric feeding tube) [ng/mL]	Conc. in serum ([3]; SUB 001, Visit 3, Timepoint 99, SAE 10 Jan. 2019, fenfluramine oral solution via gastric feeding tube) [ng/mL]
CCNC(C)Cc1cccc(C(F)(F)F)c1 (racemic) [Fenfluramine, (RS)-N-ethyl-1-[3-(trifluoromethyl)phenyl]propan-2-amine]	reduction in the number of seizures	responded to treatment	successfully terminated these self-induced seizures	17.7	17.8	22.2	4	about 2 weeks	3	improved seizure control	approximately 32 days	cardiac valvular fibrosis and pulmonary hypertension			
CC(N)Cc1cccc(C(F)(F)F)c1 (stereo not drawn) [Norfenfluramine]													23.8	23.1	27.6
